Experimental data reported in publication PMC7413254 (Nature Communications, 2020).

Legend:
Format in all cases: cell-based
PfCRT^Ecu1110 [1] = target: T1, PfCRT^Ecu1110 (Plasmodium falciparum, UniProt Q9N623, A220S/I356L/K76T/N326D); test: [3H]CQ uptake into Xenopus oocytes, cis-inhibition by unlabelled solute; settings: for PfCRT-mediated [3H]CQ transport, cis-inhibition (% PfCRTEcu1110 control): PfCRTEcu1110 oocytes, background [3H]CQ accumulation subtracted, normalised to oocyte type control; for [3H]CQ transport (% PfCRTEcu1110 control), cis-inhibition, PfCRTEcu1110: PfCRT-mediated component (background subtracted), sheet title says normalised to PfCRTDd2 control, mean ± SEM, SEM
In short: (§1)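 Inward transport into oocyte cytosol from pH 5.5 medium models PfCRT efflux from the acidic digestive vacuole. Incubation 1.5 h, 27.5 °C; termination by ice-cold washes; lysate radioactivity counted.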

PfCRT^Dd2 [2] = target: T2, PfCRT^Dd2 (Plasmodium falciparum, UniProt Q9N623, A220S/I356T/K76T/M74I/N326S/N75E/Q271E/R371I); test: as above; settings: PfCRTDd2 oocytes, background [3H]CQ accumulation subtracted, normalised to oocyte type control
In short: as §1

PfCRT^Ecu1110 [3] = target: T1, PfCRT^Ecu1110; test: cell-based; settings: for PfCRT-mediated [3H]CQ transport, trans-stimulation (% PfCRTEcu1110 control): PfCRTEcu1110 oocytes, normalised to oocyte type control; for [3H]CQ transport (% PfCRTDd2 control), trans-stimulation, PfCRTEcu1110: PfCRT-mediated component (background subtracted), sheet title says normalised to PfCRTDd2 control, mean ± SEM, SEM
In short: (§2)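 Oocytes (ten per treatment, ≥4 independent frogs/days) were preloaded by injecting VF-6 in 25 nL ND96 at pH 5.0, 5.5, 6.0 or 7.0, or Na^+-free choline buffer, then uptake run 1.5 h, 27.5 °C, ND96 pH 5.5 by default. Internal concentrations assumed ~400 nL oocyte volume.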

PfCRT^Dd2 [4] = target: T2, PfCRT^Dd2; test: cell-based; settings: for PfCRT-mediated [3H]CQ transport, trans-stimulation (% PfCRTDd2 control): PfCRTDd2 oocytes, normalised to oocyte type control; for [3H]CQ transport (% PfCRTDd2 control), trans-stimulation, PfCRTDd2: PfCRT-mediated component (background subtracted), mean ± SEM, SEM
In short: as §2

PfCRT^3D7 = PfCRT^3D7 (Plasmodium falciparum, UniProt Q8IBZ9); test: cell-based; settings: PfCRT3D7 oocytes, normalised to oocyte type control
In short: as §2

[5] = [test solute]i = 5 mM (intracellular)
[6] = [test solute]i = 45 mM (intracellular; 30 mM for some solutes due to solubility)
[7] = [test solute]i = 5 mM (injected)
[8] = [test solute]i = 45 mM (30 mM for some solutes due to solubility)

T2 sequence (Q9N623 whole entry A220S/I356T/K76T/M74I/N326S/N75E/Q271E/R371I): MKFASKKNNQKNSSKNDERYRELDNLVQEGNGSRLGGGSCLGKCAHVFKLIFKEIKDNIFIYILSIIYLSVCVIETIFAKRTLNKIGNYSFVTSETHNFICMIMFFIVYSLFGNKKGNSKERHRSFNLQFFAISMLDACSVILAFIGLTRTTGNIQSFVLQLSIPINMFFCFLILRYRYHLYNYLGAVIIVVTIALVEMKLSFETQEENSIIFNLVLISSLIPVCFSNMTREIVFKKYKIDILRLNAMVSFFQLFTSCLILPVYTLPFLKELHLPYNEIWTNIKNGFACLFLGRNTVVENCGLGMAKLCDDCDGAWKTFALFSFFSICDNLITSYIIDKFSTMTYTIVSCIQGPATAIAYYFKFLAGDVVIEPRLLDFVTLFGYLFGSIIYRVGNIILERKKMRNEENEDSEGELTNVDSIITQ
Sequence of PfCRT^3D7 (Q8IBZ9 59-398): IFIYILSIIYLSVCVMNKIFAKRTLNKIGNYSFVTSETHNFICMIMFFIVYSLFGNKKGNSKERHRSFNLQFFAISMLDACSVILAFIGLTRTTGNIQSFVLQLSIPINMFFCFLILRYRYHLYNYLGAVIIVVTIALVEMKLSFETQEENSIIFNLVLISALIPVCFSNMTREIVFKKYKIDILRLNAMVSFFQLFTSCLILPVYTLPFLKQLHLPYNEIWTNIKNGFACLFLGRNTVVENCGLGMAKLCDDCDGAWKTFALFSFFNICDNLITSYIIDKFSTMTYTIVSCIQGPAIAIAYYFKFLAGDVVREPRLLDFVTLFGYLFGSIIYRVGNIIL
T1 sequence (Q9N623 whole entry A220S/I356L/K76T/N326D): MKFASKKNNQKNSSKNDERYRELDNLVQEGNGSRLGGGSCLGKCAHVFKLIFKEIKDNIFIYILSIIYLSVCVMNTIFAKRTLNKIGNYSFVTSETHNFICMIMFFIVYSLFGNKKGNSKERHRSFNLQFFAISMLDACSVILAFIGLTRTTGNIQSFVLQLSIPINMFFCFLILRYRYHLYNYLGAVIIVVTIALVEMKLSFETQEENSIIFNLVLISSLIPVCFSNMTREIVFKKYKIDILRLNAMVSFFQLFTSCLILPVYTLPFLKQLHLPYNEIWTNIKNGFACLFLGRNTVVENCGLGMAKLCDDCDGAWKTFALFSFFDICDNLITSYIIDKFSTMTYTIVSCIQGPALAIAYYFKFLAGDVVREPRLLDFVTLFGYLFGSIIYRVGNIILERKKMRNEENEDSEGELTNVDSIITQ

| Substance | PfCRT-mediated [3H]CQ transport, cis-inhibition (% PfCRTEcu1110 control) (PfCRT^Ecu1110 [1]; [test solute] = 0.5 mM) | PfCRT-mediated [3H]CQ transport, cis-inhibition (% PfCRTEcu1110 control) (PfCRT^Ecu1110 [1]; [test solute] = 1 mM) | PfCRT-mediated [3H]CQ transport, cis-inhibition (% PfCRTEcu1110 control) (PfCRT^Ecu1110 [1]; [test solute] = 2 mM) | [3H]CQ transport (% PfCRTEcu1110 control), cis-inhibition, PfCRTEcu1110 (PfCRT^Ecu1110 [1]; [test solute] = 0.5 mM) | [3H]CQ transport (% PfCRTEcu1110 control), cis-inhibition, PfCRTEcu1110 (PfCRT^Ecu1110 [1]; [test solute] = 1 mM) | [3H]CQ transport (% PfCRTEcu1110 control), cis-inhibition, PfCRTEcu1110 (PfCRT^Ecu1110 [1]; [test solute] = 2 mM) | PfCRT-mediated [3H]CQ transport, cis-inhibition (% PfCRTDd2 control) (PfCRT^Dd2 [2]; [test solute] = 0.5 mM) | PfCRT-mediated [3H]CQ transport, cis-inhibition (% PfCRTDd2 control) (PfCRT^Dd2 [2]; [test solute] = 1 mM) | PfCRT-mediated [3H]CQ transport, cis-inhibition (% PfCRTDd2 control) (PfCRT^Dd2 [2]; [test solute] = 2 mM) | PfCRT-mediated [3H]CQ transport, trans-stimulation (% PfCRTEcu1110 control) (PfCRT^Ecu1110 [3]; [5]) | PfCRT-mediated [3H]CQ transport, trans-stimulation (% PfCRTEcu1110 control) (PfCRT^Ecu1110 [3]; [6]) | [3H]CQ transport (% PfCRTDd2 control), trans-stimulation, PfCRTEcu1110 (PfCRT^Ecu1110 [3]; [7]) | [3H]CQ transport (% PfCRTDd2 control), trans-stimulation, PfCRTEcu1110 (PfCRT^Ecu1110 [3]; [8]) | PfCRT-mediated [3H]CQ transport, trans-stimulation (% PfCRTDd2 control) (PfCRT^Dd2 [4]; [5]) | PfCRT-mediated [3H]CQ transport, trans-stimulation (% PfCRTDd2 control) (PfCRT^Dd2 [4]; [6]) | [3H]CQ transport (% PfCRTDd2 control), trans-stimulation, PfCRTDd2 (PfCRT^Dd2 [4]; [7]) | [3H]CQ transport (% PfCRTDd2 control), trans-stimulation, PfCRTDd2 (PfCRT^Dd2 [4]; [8]) | PfCRT-mediated [3H]CQ transport, trans-stimulation (% PfCRT3D7 control) (PfCRT^3D7; [5]) | PfCRT-mediated [3H]CQ transport, trans-stimulation (% PfCRT3D7 control) (PfCRT^3D7; [6]) |
| --- | --- | --- | --- | --- | --- | --- | --- | --- | --- | --- | --- | --- | --- | --- | --- | --- | --- | --- | --- |
| HVDPEN [HN-6] | 61 ± 1.5 % PfCRTEcu1110 control | 44 ± 3.1 % PfCRTEcu1110 control | 49 ± 2.4 % PfCRTEcu1110 control | 19 ± 0.3 % PfCRTEcu1110 control | 14 ± 0.1 % PfCRTEcu1110 control | 15 ± 0.4 % PfCRTEcu1110 control | 21 ± 0.7 % PfCRTDd2 control | 15 ± 1.1 % PfCRTDd2 control | 7.3 ± 0.2 % PfCRTDd2 control | 117 ± 2.2 % PfCRTEcu1110 control | 136 ± 3.2 % PfCRTEcu1110 control | 35 ± 1.3 % PfCRTEcu1110 control | 41 ± 1.6 % PfCRTEcu1110 control | 100 ± 2.1 % PfCRTDd2 control | 113 ± 1.1 % PfCRTDd2 control | 100 ± 2.1 % PfCRTDd2 control | 113 ± 1.1 % PfCRTDd2 control | 148 ± 4.6 % PfCRT3D7 control | 193 ± 4.7 % PfCRT3D7 control |
| HVDPENF [HF-7] | 41 ± 1.8 % PfCRTEcu1110 control | 31 ± 3.1 % PfCRTEcu1110 control | 22 ± 0.4 % PfCRTEcu1110 control | – | – | 7.0 ± 0.01 % PfCRTEcu1110 control | 40 ± 2.3 % PfCRTDd2 control | 31 ± 2.3 % PfCRTDd2 control | 18 ± 0.6 % PfCRTDd2 control | 131 ± 3.7 % PfCRTEcu1110 control | 138 ± 4.1 % PfCRTEcu1110 control | 40 ± 2.1 % PfCRTEcu1110 control | 42 ± 1.5 % PfCRTEcu1110 control | 100 ± 1.9 % PfCRTDd2 control | 112 ± 1.7 % PfCRTDd2 control | 100 ± 1.9 % PfCRTDd2 control | 112 ± 1.7 % PfCRTDd2 control | 140 ± 5.2 % PfCRT3D7 control | 189 ± 6.2 % PfCRT3D7 control |
| HVDPENFRL [HL-9] | 41 ± 2.5 % PfCRTEcu1110 control | 35 ± 2.6 % PfCRTEcu1110 control | 28 ± 0.1 % PfCRTEcu1110 control | – | – | – | 38 ± 1.0 % PfCRTDd2 control | 31 ± 0.3 % PfCRTDd2 control | 9 ± 0.8 % PfCRTDd2 control | 98 ± 3.6 % PfCRTEcu1110 control | 96 ± 2.1 % PfCRTEcu1110 control | – | – | 97 ± 2.0 % PfCRTDd2 control | 98 ± 3.3 % PfCRTDd2 control | – | – | 98 ± 3.5 % PfCRT3D7 control | 97 ± 3.1 % PfCRT3D7 control |
